Columns and labels:
[1] = molecular target: HLA-A*0301 (Homo sapiens, UniProt P04439); assay: HLA class I binding assay, purified HLA-A*0301; settings: Table XXIII, binding affinity
[2] = molecular target: HLA-A*1101 (Homo sapiens, UniProt P04439, A114D/D185E/E176A/F33Y/L180Q/S129P/T187R); assay: HLA class I binding assay, purified HLA-A*1101; settings: Table XXIII, binding affinity
[3] = molecular target: HLA-A*3301 (Homo sapiens, UniProt P04439, A270S/D185E/E176V/E277Q/E87N/F33T/G231S/H175R/I121M/I218V/I322F/K168Q/K210R/L300P/L318F/M331R/P217A/Q86R/Q94H/R138Q/T323A/T345S/T97I/V358M/Y195H); assay: HLA class I binding assay, purified HLA-A*3301; settings: Table XXIII, binding affinity
[4] = molecular target: HLA-A*6801 (Homo sapiens, UniProt P04439, A269V/D185E/E176V/E277Q/E87N/F33Y/G231S/I121M/I166T/I218V/L180W/L300P/L318F/N151K/P208A/P217A/Q86R/R169H/T345S); assay: HLA class I binding assay, purified HLA-A*6801; settings: Table XXIII, binding affinity
[5] = molecular target: HLA-DRB1*0301 (DR3) (Homo sapiens, UniProt P01903+P01911, A100K/A102G/A103R/A169T/F55Y/I96L/K41T/L162R/M171V/P40S/Q125H/Q178H/Q39Y/R42S/S66N/T106N/T262R/W38E/Y61H); assay: HLA class II binding assay, DRB1*0301 (DR3); settings: read-out: DR3 binding affinity
Protocol: Conversely, The DR supertype cross-reactive binding peptides were also tested for DR3 binding capacity.

[6] = system: .221A2.1 cells pulsed with peptide; assay: Primary in vitro CTL induction, 51Cr release against peptide-pulsed targets; assay type: cell-based, human; settings: number of donors yielding a positive response/total tested
Protocol: (§1) The colon adenocarcinoma cell lines SW403 and […], the osteosarcoma line Saos-2 and the breast tumor line BT540 were obtained from the American Type Culture Collection (ATCC) (Rockville, Md.). The gastric cancer line, KATO III was obtained from the Japanese Cancer Research Resources Bank. […] The melanoma, colon and gastric cancer cells were treated with 100 U/ml IFN (Genzyme) for 48 hours at 37° C. before use as targets in the ^51Cr release and in situ IFN assays.
The monocytes were purified by plating 10×10^6 PBMC/well in a 6-well plate. After 2 hours at 37° C., the non-adherent cells were removed by gently shaking the plates and aspirating the supernatants. The wells were washed a total of three times with 3 ml RPMI to remove most of the non-adherent and loosely adherent cells. Three ml of complete medium containing 50 ng/ml of GM-CSF and 1,000 U/ml of IL-4 were then added to each well. […]
Induction of CTL with DC and Peptide: CD8+ T-cells were isolated by positive selection with Dynal immunomagnetic beads (Dynabeads® M-450) and the detacha-bead® reagent. […] The DC were collected and centrifuged at 1300 rpm for 5-7 minutes, washed once with PBS with 1% BSA, counted and pulsed with 40 μg/ml of peptide at a cell concentration of 1-2×10^6/ml in the presence of 3 μg/ml β2-microglobulin for 4 hours at 20° C. The DC were then irradiated (4,200 rads), washed 1 time with medium and counted again. […]

[7] = system: tumor targets that endogenously express CEA (SW403, HT-20, KATO III); assay: 51Cr release against tumor targets (endogenous recognition); assay type: cell-based, human; settings: number of donors yielding a positive response/total tested
Protocol: as §1
Restimulation of the induction cultures with peptide-pulsed adherent cells: Seven and fourteen days after the primary induction the cells were restimulated with peptide-pulsed adherent cells. […] After expansion, activity was measured in both assays for a side by side comparison.
Seven days after the second restimulation, cytotoxicity was determined in a standard (5 hr) ^51Cr release assay by assaying individual wells at a single E:T. Peptide-pulsed targets were prepared by incubating the cells with 10 μg/ml peptide overnight at 37° C.
Adherent target cells were removed from culture flasks with trypsin-EDTA. […] At that time, 100 μl of supernatant were collected from each well and percent lysis was determined according to the formula: [(cpm of the test sample−cpm of the spontaneous ^51Cr release sample)/(cpm of the maximal ^51Cr release sample-cpm of the spontaneous ^51Cr release sample)]×100. […]

Sequence of HLA-A*1101 (P04439 25-365 limits assumed, stated change not applied): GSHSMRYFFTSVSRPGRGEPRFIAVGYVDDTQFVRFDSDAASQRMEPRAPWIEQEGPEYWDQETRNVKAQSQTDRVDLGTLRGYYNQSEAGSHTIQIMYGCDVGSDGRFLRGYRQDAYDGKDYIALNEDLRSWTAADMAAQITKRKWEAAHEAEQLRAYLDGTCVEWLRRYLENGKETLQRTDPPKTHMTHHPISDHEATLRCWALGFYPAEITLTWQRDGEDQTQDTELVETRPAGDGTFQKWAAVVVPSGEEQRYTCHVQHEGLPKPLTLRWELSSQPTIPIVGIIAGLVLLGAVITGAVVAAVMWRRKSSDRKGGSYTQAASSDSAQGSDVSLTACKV
Sequence of HLA-DRB1*0301 (DR3) (P01903 26-254 limits assumed, other chains not shown): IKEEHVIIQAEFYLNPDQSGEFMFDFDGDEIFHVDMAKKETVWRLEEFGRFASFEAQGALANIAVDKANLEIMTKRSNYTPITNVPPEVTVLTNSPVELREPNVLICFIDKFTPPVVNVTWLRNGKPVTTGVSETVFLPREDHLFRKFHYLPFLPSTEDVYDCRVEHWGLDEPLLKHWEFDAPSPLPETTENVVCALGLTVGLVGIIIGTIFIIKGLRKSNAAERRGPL

CC(C)[C@H](NC(=O)[C@@H](N)[C@@H](C)O)C(=O)N[C@@H](CO)C(=O)N1CCC[C@H]1C(=O)N[C@@H](CO)C(=O)N[C@@H](Cc1ccc(O)cc1)C(=O)N[C@H](C(=O)N[C@@H](Cc1ccc(O)cc1)C(=O)N[C@@H](Cc1ccc(O)cc1)C(=O)N[C@@H](CCCNC(=N)N)C(=O)O)[C@@H](C)O [CEA.419.V2] was tested, and the IC50 [1] was 2.34 µM, the IC50 [2] was 3 µM and the IC50 [3] was 0.264 µM. The IC50 [4] was 0.0086 µM.

CC[C@H](C)[C@H](NC(=O)[C@@H](NC(=O)[C@H](Cc1c[nH]cn1)NC(=O)[C@@H](N)CC(C)C)C(C)C)C(=O)N[C@@H](CCCCN)C(=O)N[C@@H](CO)C(=O)N[C@@H](CC(=O)O)C(=O)N[C@@H](CC(C)C)C(=O)N[C@H](C(=O)N[C@@H](CC(N)=O)C(=O)N[C@@H](CCC(=O)O)C(=O)N[C@@H](CCC(=O)O)C(=O)N[C@@H](C)C(=O)N[C@H](C(=O)NCC(=O)O)[C@@H](C)O)C(C)C [CEA.122] was tested, and the IC50 [5] was 2.31 µM.

In the case of CC(C)C[C@H](NC(=O)[C@H](CC(N)=O)NC(=O)[C@H](CC(C)C)NC(=O)[C@H](CC(N)=O)NC(=O)[C@H](C)NC(=O)CNC(=O)[C@H](CO)NC(=O)[C@H](CC(C)C)NC(=O)[C@@H](N)Cc1ccc(O)cc1)C(=O)O [compound 605], the “CTL Wildtype” value ([6]; Table XXVIIa) is reported as 2/2, the “CTL Wild-type” value ([6]; Table XXVIIb) is reported as 2/2 and the “CTL Tumor” value ([7]; Table XXVIIa) is reported as 1/2. The “CTL Tumor” value ([7]; Table XXVIIb) was 1/2.

Reference: patent US20040146519A1, “Inducing cellular immune responses to carcinoembryonic antigen using peptide and nucleic acid compositions” (priority 2002, published 2004)
